# Target: T1, human orexin type 2 receptor (Homo sapiens, UniProt O43614)
# T1 construct: expressed in transfected cells
# T1 sequence (O43614 1-444): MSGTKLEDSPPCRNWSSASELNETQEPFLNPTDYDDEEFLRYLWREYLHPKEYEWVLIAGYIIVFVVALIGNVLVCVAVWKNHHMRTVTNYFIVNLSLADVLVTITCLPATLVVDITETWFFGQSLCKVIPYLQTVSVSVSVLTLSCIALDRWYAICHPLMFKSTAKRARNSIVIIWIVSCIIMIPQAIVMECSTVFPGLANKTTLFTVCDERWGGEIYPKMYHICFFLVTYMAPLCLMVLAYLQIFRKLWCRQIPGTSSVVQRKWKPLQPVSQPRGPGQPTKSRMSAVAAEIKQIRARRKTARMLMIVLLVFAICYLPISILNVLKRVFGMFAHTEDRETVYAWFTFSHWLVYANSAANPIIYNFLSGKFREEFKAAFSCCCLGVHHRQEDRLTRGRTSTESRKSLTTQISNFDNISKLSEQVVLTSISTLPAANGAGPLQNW
# Assay: Measurement of orexin type 2 receptor agonist activity (calcium indicator fluorescence, CHO cells forcibly expressing human OX2 receptor)
# Assay type: cell-based
# Details: compound at 3 μM; 0% = DMSO, 100% = orexin A (human) 10 nM
# Procedure, shortened: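 CHO-dhfr cells stably expressing human OX2R, loaded with Fluo-4 AM (30 min 37 °C, then 30 min RT), then given test compound. Calcium fluorescence read by FDSS over ~2 min. Activity (%) scaled from DMSO (0%) to 10 nM final orexin A (100%).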
row,Compound,"OX2R agonist activity (3 μM, %) [%]"
1,"O=C(N1CC(F)(F)[C@H](NS(=O)(=O)C2CC2)[C@@H]1Cc1cccc(-c2cccc(F)c2F)c1F)C1(O)CCC1 [Example 424, N-{(2S,3R)-4,4-difluoro-1-(1-hydroxycyclobutane-1-carbonyl)-2-[(2,2′,3′-trifluoro[1,1′-biphenyl]-3-yl)methyl]pyrrolidin-3-yl}cyclopropanesulfonamide]",95
2,"Cc1cccc(-c2cccc(C[C@H]3[C@@H](NS(=O)(=O)C4CC4)C(F)(F)CN3C(=O)N(C)C)c2F)c1 [Example 425, (2S,3R)-3-[(cyclopropanesulfonyl)amino]-4,4-difluoro-2-[(2-fluoro-3′-methyl[1,1′-biphenyl]-3-yl)methyl]-N,N-dimethylpyrrolidine-1-carboxamide]",95
3,"Cc1cccc(-c2cccc(C[C@H]3[C@@H](NS(=O)(=O)C4CC4)C(F)(F)CN3C(=O)N3CCC3)c2F)c1 [Example 426, N-{(2S,3R)-1-(azetidine-1-carbonyl)-4,4-difluoro-2-[(2-fluoro-3′-methyl[1,1′-biphenyl]-3-yl)methyl]pyrrolidin-3-yl}cyclopropanesulfonamide]",90
4,"Cc1cccc(-c2cccc(C[C@H]3[C@@H](NS(=O)(=O)N(C)C)C(F)(F)CN3C(=O)C3(O)CCC3)c2F)c1 [Example 427, N′-[(2S,3R)-4,4-difluoro-2-[(2-fluoro-3′-methyl[1,1′-biphenyl]-3-yl)methyl]-1-(1-hydroxycyclobutane-1-carbonyl)pyrrolidin-3-yl]-N,N-dimethylsulfuric diamide]",99
5,"Cc1cccc(-c2cccc(C[C@H]3[C@@H](NS(=O)(=O)C4CC4)C(F)(F)CN3C(=O)C3CCO3)c2F)c1 (stereo partly drawn) [Example 428, N-[(2S,3R)-4,4-difluoro-2-[(2-fluoro-3′-methyl[1,1′-biphenyl]-3-yl)methyl]-1-(oxetane-2-carbonyl)pyrrolidin-3-yl]cyclopropanesulfonamide]",100
6,"Cc1cccc(-c2cccc(C[C@H]3[C@@H](NS(=O)(=O)C4CC4)C(F)(F)CN3C(=O)C3(O)CCC3)c2F)c1 [Example 430, N-[(2S,3R)-4,4-difluoro-2-[(2-fluoro-3′-methyl[1,1′-biphenyl]-3-yl)methyl]-1-(1-hydroxycyclobutane-1-carbonyl)pyrrolidin-3-yl]cyclopropanesulfonamide]",96
7,"CS(=O)(=O)N[C@@H]1[C@H](Cc2cccc(-c3cc(F)cc(F)c3)c2F)N(C(=O)[C@H]2C[C@H](F)C2)CC1(F)F [Example 431, N-{(2S,3R)-4,4-difluoro-1-((1r,3S)-3-fluorocyclobutane-1-carbonyl)-2-[(2,3′,5′-trifluoro[1,1′-biphenyl]-3-yl)methyl]pyrrolidin-3-yl}methanesulfonamide]",106
8,"Cc1cccc(-c2cccc(C[C@H]3[C@@H](NS(=O)(=O)N(C)C)C(F)(F)CN3C(=O)C3CCO3)c2F)c1 (stereo partly drawn) [Example 432, N′-[(2S,3R)-4,4-difluoro-2-[(2-fluoro-3′-methyl[1,1′-biphenyl]-3-yl)methyl]-1-(oxetane-2-carbonyl)pyrrolidin-3-yl]-N,N-dimethylsulfuric diamide]",95
9,"Cc1cccc(-c2cccc(C[C@H]3[C@@H](NS(=O)(=O)N(C)C)C(F)(F)CN3C(=O)C3CCO3)c2F)c1 (stereo partly drawn) [Example 434, N′-[(2S,3R)-4,4-difluoro-2-[(2-fluoro-3′-methyl[1,1′-biphenyl]-3-yl)methyl]-1-(oxetane-2-carbonyl)pyrrolidin-3-yl]-N,N-dimethylsulfuric diamide]",101
10,"CS(=O)(=O)N[C@@H]1[C@H](Cc2cccc(-c3cccc(F)c3F)c2F)N(C(=O)C2CC(F)C2)CC1(F)F (stereo partly drawn) [Example 435, N-{(2S,3R)-4,4-difluoro-1-(3-fluorocyclobutane-1-carbonyl)-2-[(2,2′,3′-trifluoro[1,1′-biphenyl]-3-yl)methyl]pyrrolidin-3-yl}methanesulfonamide]",88
11,"CS(=O)(=O)N[C@@H]1[C@H](Cc2cccc(-c3cccc(F)c3F)c2F)N(C(=O)C2CC(F)C2)CC1(F)F (stereo partly drawn) [Example 436, N-{(2S,3R)-4,4-difluoro-1-(3-fluorocyclobutane-1-carbonyl)-2-[(2,2′,3′-trifluoro[1,1′-biphenyl]-3-yl)methyl]pyrrolidin-3-yl}methanesulfonamide]",92
12,"CS(=O)(=O)N[C@@H]1[C@H](Cc2cccc(-c3cc(F)ccc3F)c2F)N(C(=O)C2CC(F)C2)CC1(F)F (stereo partly drawn) [Example 437, N-{(2S,3R)-4,4-difluoro-1-(3-fluorocyclobutane-1-carbonyl)-2-[(2,2′,5′-trifluoro[1,1′-biphenyl]-3-yl)methyl]pyrrolidin-3-yl}methanesulfonamide]",84
13,"CN(C)S(=O)(=O)N[C@@H]1[C@H](Cc2cccc(-c3cccc(F)c3F)c2F)N(C(=O)C2(O)CCC2)CC1(F)F [Example 438, N′-{(2S,3R)-4,4-difluroo-1-(1-hydroxycyclobutane-1-carbonyl)-2-[(2,2′,3′-trifluoro[1,1′-biphenyl]-3-yl)methyl]pyrrolidin-3-yl}-N,N-dimethylsulfuric diamide]",95

# Other lines, results leading:
row,"OX2R agonist activity (3 μM, %) [%]",Compound
1,93,"CS(=O)(=O)N[C@@H]1[C@H](Cc2cccc(-c3cc(F)ccc3F)c2F)N(C(=O)C2CC(F)C2)CC1(F)F (stereo partly drawn) [Example 439, N-{(2S,3R)-4,4-difluoro-1-(3-fluorocyclobutane-1-carbonyl)-2-[(2,2′,5′-trifluoro[1,1′-biphenyl]-3-yl)methyl]pyrrolidin-3-yl}methanesulfonamide]"
2,94,"CS(=O)(=O)N[C@@H]1[C@H](Cc2cccc(-c3ccccc3)c2F)N(C(=O)C2CC(F)C2)CC1(F)F (stereo partly drawn) [Example 440, N-[(2S,3R)-4,4-difluoro-2-[(2-fluoro[1,1′-biphenyl]-3-yl)methyl]-1-(3-fluorocyclobutane-1-carbonyl)pyrrolidin-3-yl]methanesulfonamide]"
3,93,"CS(=O)(=O)N[C@@H]1[C@H](Cc2cccc(-c3ccccc3)c2F)N(C(=O)C2CC(F)C2)CC1(F)F (stereo partly drawn) [Example 441, N-[(2S,3R)-4,4-difluoro-2-[(2-fluoro[1,1′-biphenyl]-3-yl)methyl]-1-(3-fluorocyclobutane-1-carbonyl)pyrrolidin-3-yl]methanesulfonamide]"
4,96,"Cc1cccc(-c2cccc(C[C@H]3[C@@H](NS(=O)(=O)N(C)C)C(F)(F)CN3C(=O)N(C)C)c2F)c1 [Example 442, (2S,3R)-3-[(dimethylsulfamoyl)amino]-4,4-difluoro-2-[(2-fluoro-3′-methyl[1,1′-biphenyl]-3-yl)methyl]-N,N-dimethylpyrrolidine-1-carboxamide]"
5,98,"CCS(=O)(=O)N[C@@H]1[C@H](Cc2cccc(-c3cc(C)cc(F)c3)c2F)N(C(=O)N2CCC2)CC1(F)F [Example 444, N-{(2S,3R)-1-(azetidine-1-carbonyl)-2-[(2,3′-difluoro-5′-methyl[1,1′-biphenyl]-3-yl)methyl]-4,4-difluoropyrrolidin-3-yl}ethanesulfonamide]"
6,95,"CCS(=O)(=O)N[C@@H]1[C@H](Cc2cccc(-c3cc(C)cc(F)c3)c2F)N(C(=O)N(C)C)CC1(F)F [Example 447, (2S,3R)-2-[(2,3′-difluoro-5′-methyl[1,1′-biphenyl]-3-yl)methyl]-3-[(ethanesulfonyl)amino]-4,4-difluoro-N,N-dimethylpyrrolidine-1-carboxamide]"
